What was measured:
[1] = biological target: Estrogen receptor (Homo sapiens) (UniProt Q92731+P03372); assay: Percent of covalently modified 16-mer (DNA adduct) in a slowly migrating complex with ER ligand binding domain (ER-LBD) in EMSA electrophoretic mobility shift assay; format: functional
[2] = Partition coefficient (logP); format: physicochemical; conditions: octanol/water
[3] = LogD at pH 7.4; format: physicochemical; conditions: buffer
MDA-MB-231 = assay: Dose required for 30% clonal survival of ER negative MDA-MB-231 breast cancer cells after 2 hr; format: functional, Homo sapiens
MCF7 = assay: Dose required for 30% clonal survival of ER positive MCF-7 breast cancer cells after 2 hr; format: functional, Homo sapiens
[4] = Percent of 16-mer cleaved by piperidine after treatment with test compound for 24 hr at 37 degrees C; format: functional

Compound | Oligo shifted [1] | logP [2] | logD [3] | ED30 (MDA-MB-231) | ED30 (MCF7) | Oligo modified [4]
C[C@]12CC[C@@H]3c4ccc(O)cc4C[C@@H](CCCCCCNCCOC(=O)NCCCc4ccc(N(CCCl)CCCl)cc4)[C@H]3[C@@H]1CC[C@@H]2O | 93% | 5.32 | 2.22 | 9.6 µM | 5.1 µM | 45%
C[C@]12CC[C@@H]3c4ccc(O)cc4C[C@@H](CCCCCCOC(=O)NCCCc4ccc(N(CCCl)CCCl)cc4)[C@H]3[C@@H]1CC[C@@H]2O |  | 5.61 | 5.61 | >20 µM | >20 µM | 3%
C[C@]12CC[C@@H]3c4ccc(O)cc4C[C@@H](CCCCCCNCCCCNCCCCc4ccc(N(CCCl)CCCl)cc4)[C@H]3[C@@H]1CC[C@@H]2O | 38% | 5.32 | 2.22 | 7.9 µM | 5.1 µM | 79%
C[C@]12CC[C@@H]3c4ccc(O)cc4C[C@@H](CCCCCCNC(=O)CCCNC(=O)CCCc4ccc(N(CCCl)CCCl)cc4)[C@H]3[C@@H]1CC[C@@H]2O |  | 4.85 | 4.85 | >20 µM | >20 µM | 39%
C[C@]12CC[C@@H]3c4ccc(O)cc4C[C@@H](CCCCCCNC(=O)CCCc4ccc(N(CCCl)CCCl)cc4)[C@H]3[C@@H]1CC[C@@H]2O |  | 5.07 | 5.07 | 20 µM | >20 µM | 14%
C[C@]12CC[C@@H]3c4ccc(O)cc4C[C@@H](CCCCCCNCC/N=C(/N)NCCCc4ccc(N(CCCl)CCCl)cc4)[C@H]3[C@@H]1CC[C@@H]2O | 93% | 6.27 | 3.12 | >20 µM | >20 µM | 29%
C[C@]12CC[C@@H]3c4ccc(O)cc4C[C@@H](CCCCCCNCCCCc4ccc(N(CCCl)CCCl)cc4)[C@H]3[C@@H]1CC[C@@H]2O | 67% | 5.96 | 2.87 | 8.6 µM | 5.1 µM | 44%
C[C@]12CC[C@@H]3c4ccc(O)cc4C[C@@H](CCCCCC/N=C(/N)NCCCc4ccc(N(CCCl)CCCl)cc4)[C@H]3[C@@H]1CC[C@@H]2O | 38% | 5.67 | 2.52 | >20 µM | >20 µM | 58%
